The METLIN SMRT retention time set (Domingo-Almenara et al. 2019)

Assay: gradient 5% acetonitrile 3 min, to 50% in 2 min, to 85% in 15 min, held 3 min, 100 µL/min
Conditions: column: Zorbax Extend-C18 2.1 x 50 mm; eluents: water / acetonitrile, 0.1% formic acid
Procedure, shortened: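 Mixtures of ~100 pure standards were chromatographed on a Zorbax Extend-C18 column (2.1 × 50 mm, 1.8 μm) at 100 μL/min using water and acetonitrile, each with 0.1% formic acid. Detection used a quadrupole time-of-flight mass spectrometer in positive and negative ionization mode, and data collection spanned 3 months. Retention time was obtained from adduct peaks picked computationally and each checked manually.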

Compound	RP-LC retention time [s]
CC(C)N1C(=O)c2cccnc2Sc2cc(NC(=O)C3CCOC3)ccc21 (centres undefined)	680
COc1ccc(NC(=O)N2CCc3nc(-c4ccccc4)ncc3C2)cc1OC	804
CCOc1ccc(NC(=O)c2nc(C)oc2C)cc1	884
O=C(c1ccc(OCC2CCN(C(=O)C3CCC3)CC2)cc1)N1CCCC1	782
O=C(Cn1cc(C(=O)c2ccco2)c2ccccc21)NCc1ccc2c(c1)OCCCO2	858
CCOc1ccc(S(=O)(=O)N2CCCC(C(=O)Nc3ccc(S(N)(=O)=O)cc3)C2)cc1C (centres undefined)	876
O=C(Cn1cccc1-c1nc(-c2ccccc2)cs1)N1CCOCC1	934
Cc1nn(-c2ccc(-c3ccccc3)nn2)c(C)c1S(=O)(=O)N1CCC(C)CC1	1160
COC(=O)c1c(C)c(C(=O)C(C)N(Cc2ccc(F)cc2)C(=O)C2CC2)c(C)n1C (centres undefined)	917
Cc1onc(-c2ccccc2)c1-c1ccc(S(N)(=O)=O)cc1	869
COc1ccccc1-c1nc(Cn2nnc(-c3nc(-c4cccs4)no3)c2C)c(C)o1	1050
O=C(NCc1ccc(F)cc1)C1CCN(c2cc(N3CCOCC3)ncn2)CC1	607
Cc1ccc(Cn2nc3c(S(=O)(=O)N4CCN(c5ccc(F)cc5)CC4)cccn3c2=O)c(C)c1	1080
O=C(CSc1ccc(F)cc1)N1CCCC(c2nnc(-c3ccc4c(c3)OCO4)o2)C1 (centres undefined)	810
CCc1cccc(C)c1NC(=O)Cn1cnc2nc(N3CCCC(C(=O)NC)C3)sc2c1=O (centres undefined)	672
Cc1nn(C)c(C)c1S(=O)(=O)N1CCO[C@@H](COc2ccccn2)[C@@H]1c1ccccc1	850
CCOc1ccc(-c2csc(NC(=O)CCCOc3ccccc3C)n2)cc1	1240
CCc1cccc(C)c1Nc1c(-c2ccc(C(=O)NC(C)C)cc2)nc2cnccn12	814
Clc1ccc(-c2noc(Cc3nc(-c4ccc5c(c4)OCO5)cs3)n2)cc1	1260
COc1ccccc1NC(=O)C1C(=O)NC2(C)CC1c1ccccc1O2 (centres undefined)	905
COc1ccc(-n2ccc(=O)c(-c3nc(-c4ccccc4F)no3)n2)cc1OC	770
COc1ccc(C(=O)Nc2cccn3nc(C4CCC4)nc23)cc1	905

Compound	RP-LC retention time [s]
COc1ccc(Cl)cc1NC(=O)N1CCN(CCn2c(C(C)C)nc3cccnc32)CC1	649
O=C(Nc1ccccc1Cl)N1CCC(n2c(C(F)(F)F)nc3cccnc32)CC1	912
CN(CCc1noc(COc2ccccc2)n1)C(=O)Nc1ccc(F)cc1	876
CCc1ccc(C2=C(C)C(N3CCCN(C(=O)C4CCCCC4)CC3)=NS2(=O)=O)cc1	976
CSc1ccc(-c2nc3ncccn3c2Nc2c(C)cccc2C)cc1	864
O=C(c1ccco1)N1CC(Oc2cccc(-c3nc(-c4ccccc4)no3)c2)C1	1120
CCn1cc(-c2nc(C)c(C(=O)NCc3cccc(OC)c3)s2)c2cccnc21	904
O=C(NCc1ccc2c(c1)OCO2)c1cn(-c2cc(N3CCCC3)ncn2)cn1	775
CCOc1ccc(NC(=O)N2CCc3cn(C)c4cccc(c34)C2)cc1	913
COC(=O)c1c(C)[nH]c(C(=O)N2CCCC(C(=O)N3CCCCCC3)C2)c1C (centres undefined)	723
CC(=O)N1CCC2(CC1)OC(=O)C(C)=C2C(=O)NCCCN1CC(C)CC(C)C1 (centres undefined)	587
CCCCC1CCC(C(=O)Nc2nc(-c3ccc4c(c3)NC(=O)CO4)cs2)CC1 (centres undefined)	934
Cc1nc(-c2ccc(N3CCN(C(=O)COc4ccc(Cl)cc4)CC3)nc2)sc1C	949
Cc1ccc(CNC(=O)C2(C)Cn3nc(C(=O)NC4CCCCC4)cc3C(=O)N2C)cc1 (centres undefined)	800
COc1ccc(CN2C=C(C(=O)OCc3nc(-c4cccc(C)c4)no3)C(C)=NS2(=O)=O)cc1	1170
Cc1ccc(-c2cc(C(=O)N3CCN(c4ccc(N5CCOCC5)nn4)CC3)[nH]n2)cc1C	657
O=C(Cn1ccc2ccn(Cc3ccccc3)c2c1=O)NCc1cccs1	872
Cc1cccc(Nc2nc(CC(=O)N3CCC(C(N)=O)CC3)cs2)n1	539
O=C(Nc1ccc(-c2nc(-c3ccccc3)no2)cc1)C1CC(=O)N(c2ccccc2)C1 (centres undefined)	1030
Cc1ccc(NC(=O)N2C[C@@H](F)C[C@H]2C(=O)N2CCc3ccccc3C2)cc1	807
COc1cccc(N2CCN(c3ccnc(SCC(=O)NCc4ccccc4Cl)n3)CC2)c1	788
CC1CCN(S(=O)(=O)N2CCC(C(=O)N3CCCC(Cc4nncn4CC4CC4)C3)CC2)CC1 (centres undefined)	678

Compound	RP-LC retention time [s]
COc1ccc(NC(=O)NC2CCN(c3ccc(C)c(C)c3)C2=O)cc1F (centres undefined)	800
Cc1ccc(NC(=O)C2CCN(S(=O)(=O)c3cn(C(C)C)cn3)CC2)cc1Cl	883
CCn1cc(CN2CC(Oc3ccc(-c4noc(-c5cccnc5)n4)cc3)C2)cn1	635
O=S(=O)(NCc1nc(-c2ccc(NS(=O)(=O)c3ccccc3)cc2)no1)c1ccccc1	877
O=C(Nc1cccc(C(F)(F)F)c1)C1CCCN(c2ncnc3c2nc2n3CCCCC2)C1 (centres undefined)	958
Cc1cc(C)cc(Nc2nc(C)cc(=O)n2CC(=O)Nc2cccc(Br)c2)c1	934
Cc1ccc(NC(=O)c2cc(C)n3nc(C)cc3n2)cc1	994
COc1ccc(-c2ccc(C#N)c(SCC(=O)N3CCN(C)CC3)n2)cc1	583
Cc1cc2nn(CC(=O)Nc3ccc4c(c3)OCCO4)c(=O)n2c(Nc2ccccc2C)n1	908
CCCCNC(=O)C1CCN(S(C)(=O)=O)c2cc(Cl)ccc2O1 (centres undefined)	887
CCCNC(=O)N1[C@H]2CC[C@@H]1c1cnc(-c3ccc(F)cc3)nc1C2	829
O=S(=O)(c1ccc(F)cc1)N1CCc2nc(-c3ccccc3)ncc2C1	1040
O=C(NC(Cc1c[nH]c2ccccc12)C(=O)O)c1ccc(Cl)cc1 (centres undefined)	724
O=C(NCCn1ncccc1=O)c1c(F)cccc1F	584
Cc1ccn2cc(C(=O)NCc3ccc(F)cc3)nc2c1	645
COc1ccccc1CCC(=O)N(C)C[C@@]12CCC[C@H]1N(C)C(=O)CC2	776
Cc1ccc(CNC(=O)CC2CCN(C(=O)c3[nH]c(C)c(C(=O)OC(C)C)c3C)CC2)cc1	853
O=C(NCCCN1CCC(N2CCCCC2)CC1)c1cc(=O)n2c(nc3ccccc32)s1	577
CCn1c(=O)n(CC)c2cc(N3CCCC3)c(NC(=O)NCc3ccc(OC)cc3)cc21	643
O=C(COc1ccccc1)N1CCC(c2noc(-c3ccncc3)n2)C1 (centres undefined)	737
